Measurements published in US12077503B2, “Substituted cyclic amides and their use as herbicides” (FMC CORPORATION, priority 2015, dated 2024).

Tests used:
Format in all cases: in vivo
Kochia (Kochia scoparia) [1] = assay: Test A preemergence; details: Bassia scoparia, pre-emergence, 240 h; for pest or weed control at 125 g/ha: 125 g ai/ha, preemergence, 0 to 100 scale where 0 is no effect and 100 is complete control, read-out: Kochia plant response rating; for pest or weed control at 500 g/ha: 500 g ai/ha, Preemergence, visual injury vs untreated controls after approximately 10 d, read-out: Kochia plant response rating (0 to 100 scale where 0 is no effect and 100 is complete control)
Method in brief: (§1)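 Preemergence directed soil spray on seeded pots, or postemergence application to plants 2–10 cm, one- to two-leaf. Solvent mixture non-phytotoxic, with surfactant. Scored ~10 d later, visually, 0–100 vs untreated.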

[2] = tested on: barnyardgrass (Echinochloa crus-galli); assay: Test A preemergence; details: Echinochloa crus-galli, pre-emergence, 240 h; for pest or weed control at 125 g/ha: 125 g ai/ha, preemergence, 0 to 100 scale where 0 is no effect and 100 is complete control, read-out: Barnyardgrass plant response rating; for pest or weed control at 500 g/ha: 500 g ai/ha, Preemergence, visual injury vs untreated controls after approximately 10 d, read-out: Barnyardgrass plant response rating (0 to 100 scale where 0 is no effect and 100 is complete control)
Method in brief: as §1

[3] = tested on: giant foxtail (Setaria faberii); assay: Test A preemergence; details: Setaria faberi, pre-emergence, 240 h; for pest or weed control at 125 g/ha: 125 g ai/ha, preemergence, 0 to 100 scale where 0 is no effect and 100 is complete control, read-out: Foxtail, Giant plant response rating; for pest or weed control at 500 g/ha: 500 g ai/ha, Preemergence, visual injury vs untreated controls after approximately 10 d, read-out: Foxtail, Giant plant response rating (0 to 100 scale where 0 is no effect and 100 is complete control)
Method in brief: as §1

[4] = tested on: pigweed (Amaranthus retroflexus); assay: Test A preemergence; details: Amaranthus retroflexus, pre-emergence, 240 h; for pest or weed control at 125 g/ha: 125 g ai/ha, preemergence, 0 to 100 scale where 0 is no effect and 100 is complete control, read-out: Pigweed plant response rating; for pest or weed control at 500 g/ha: 500 g ai/ha, Preemergence, visual injury vs untreated controls after approximately 10 d, read-out: Pigweed plant response rating (0 to 100 scale where 0 is no effect and 100 is complete control)
[5] = tested on: ragweed (common ragweed, Ambrosia elatior); assay: Test A preemergence; details: Ambrosia artemisiifolia, pre-emergence, 240 h; for pest or weed control at 125 g/ha: 125 g ai/ha, preemergence, 0 to 100 scale where 0 is no effect and 100 is complete control, read-out: Ragweed plant response rating; for pest or weed control at 500 g/ha: 500 g ai/ha, Preemergence, visual injury vs untreated controls after approximately 10 d, read-out: Ragweed plant response rating (0 to 100 scale where 0 is no effect and 100 is complete control)
Method in brief: as §1

[6] = tested on: ryegrass, Italian (Italian ryegrass, Lolium multiflorum); assay: Test A preemergence; details: Lolium multiflorum, pre-emergence, 240 h; for pest or weed control at 125 g/ha: 125 g ai/ha, preemergence, 0 to 100 scale where 0 is no effect and 100 is complete control, read-out: Ryegrass, Italian plant response rating; for pest or weed control at 500 g/ha: 500 g ai/ha, Preemergence, visual injury vs untreated controls after approximately 10 d, read-out: Ryegrass, Italian plant response rating (0 to 100 scale where 0 is no effect and 100 is complete control)
Method in brief: as §1

[7] = tested on: Galium (catchweed bedstraw, Galium aparine); assay: Test A postemergence; details: Galium, post-emergence, 240 h, 125 g ai/ha, postemergence, visual injury rating after approximately 10 d; read-out: Galium plant response rating (0 to 100 scale, 0 no effect, 100 complete control)
Method in brief: as §1

Kochia (Kochia scoparia) [8] = assay: Test A postemergence; details: Bassia scoparia, post-emergence, 240 h, 125 g ai/ha, postemergence, visual injury rating after approximately 10 d; read-out: Kochia plant response rating (0 to 100 scale, 0 no effect, 100 complete control)
Method in brief: as §1

[9] = tested on: barnyardgrass (Echinochloa crus-galli); assay: Test A postemergence; details: Echinochloa crus-galli, post-emergence, 240 h, 125 g ai/ha, postemergence, visual injury rating after approximately 10 d; read-out: Barnyardgrass plant response rating (0 to 100 scale, 0 no effect, 100 complete control)
Method in brief: as §1

[10] = tested on: blackgrass (Alopecurus myosuroides); assay: Test A postemergence; details: Alopecurus myosuroides, post-emergence, 240 h, 125 g ai/ha, postemergence, visual injury rating after approximately 10 d; read-out: Blackgrass plant response rating (0 to 100 scale, 0 no effect, 100 complete control)
Method in brief: as §1

corn (Zea mays) = assay: Test A postemergence; details: Zea mays, post-emergence, 240 h, 125 g ai/ha, postemergence, visual injury rating after approximately 10 d; read-out: Corn plant response rating (0 to 100 scale, 0 no effect, 100 complete control)
Method in brief: as §1

[11] = tested on: pigweed (Amaranthus retroflexus); assay: Test A postemergence; details: Amaranthus retroflexus, post-emergence, 240 h, 125 g ai/ha, postemergence, visual injury rating after approximately 10 d; read-out: Pigweed plant response rating (0 to 100 scale, 0 no effect, 100 complete control)
Method in brief: as §1

[12] = tested on: ragweed (common ragweed, Ambrosia elatior); assay: Test A postemergence; details: Ambrosia artemisiifolia, post-emergence, 240 h, 125 g ai/ha, postemergence, visual injury rating after approximately 10 d; read-out: Ragweed plant response rating (0 to 100 scale, 0 no effect, 100 complete control)
Method in brief: as §1

[13] = tested on: ryegrass, Italian (Italian ryegrass, Lolium multiflorum); assay: Test A postemergence; details: Lolium multiflorum, post-emergence, 240 h, 125 g ai/ha, postemergence, visual injury rating after approximately 10 d; read-out: Ryegrass, Italian plant response rating (0 to 100 scale, 0 no effect, 100 complete control)
Method in brief: as §1

[14] = tested on: wheat (Triticum aestivum); assay: Test A postemergence; details: Triticum aestivum, post-emergence, 240 h, 125 g ai/ha, postemergence, visual injury rating after approximately 10 d; read-out: Wheat plant response rating (0 to 100 scale, 0 no effect, 100 complete control)
Method in brief: as §1

Structure (SMILES)	pest or weed control at 125 g/ha (Kochia (Kochia scoparia) [1])	pest or weed control at 500 g/ha (Kochia (Kochia scoparia) [1])	pest or weed control at 125 g/ha [2]	pest or weed control at 500 g/ha [2]	pest or weed control at 125 g/ha [3]	pest or weed control at 500 g/ha [3]	pest or weed control at 125 g/ha [4]	pest or weed control at 500 g/ha [4]	pest or weed control at 125 g/ha [5]	pest or weed control at 500 g/ha [5]	pest or weed control at 125 g/ha [6]	pest or weed control at 500 g/ha [6]	pest or weed control at 125 g/ha [7]	pest or weed control at 125 g/ha (Kochia (Kochia scoparia) [8])	pest or weed control at 125 g/ha [9]	pest or weed control at 125 g/ha [10]	plant injury at 125 g/ha (corn (Zea mays))	pest or weed control at 125 g/ha [11]	pest or weed control at 125 g/ha [12]	pest or weed control at 125 g/ha [13]	further results
COc1c(F)ccc([C@H]2CN(C)C(=O)[C@@H]2C(=O)Nc2ccccc2S(C)(=O)=O)c1Cl [Compound 897]	60%	90%	80%	90%	90%	100%	30%	60%	20%	60%	20%	50%	40%	30%	90%	30%	30%	0%	20%	20%	plant injury at 125 g/ha [14]: 30%
CCOc1ccc([C@H]2CN(C)C(=O)[C@@H]2C(=O)Nc2cccc(F)c2F)cc1 [Compound 904]	90%	90%	90%	90%	90%	90%	0%	50%	0%	0%	0%	0%	30%	30%	80%	30%	0%	0%	0%	0%	plant injury at 125 g/ha [14]: 0%
